A short description of the data set: moisture uptake of solid forms at given relative humidity. The data set is classed as physicochemical.

For the compound “5-(2,6-Di-4-morpholinyl-4-pyrimidinyl)-4-trifluoromethylpyridin-2-amine hemihydrate”, the moisture uptake (25% relative humidity) was found to be 1.9%. As to `Cl.Nc1cc(C(F)(F)F)c(-c2cc(N3CCOCC3)nc(N3CCOCC3)n2)cn1.O` [5-(2,6-Di-4-morpholinyl-4-pyrimidinyl)-4-(trifluoromethyl)pyridin-2-amine monohydrate monohydrochloride], the moisture uptake came out at 4.4% (75% relative humidity) and 4.9% (95% relative humidity). Turning to `Cl.Nc1cc(C(F)(F)F)c(-c2cc(N3CCOCC3)nc(N3CCOCC3)n2)cn1` [5-(2,6-Di-4-morpholinyl-4-pyrimidinyl)-4-(trifluoromethyl)pyridin-2-amine monohydrochloride], the “hygroscopicity (in words)” value is reported as “only slightly hydroscopic”. Further, the maximum moisture uptake result (25° C., up to 92% relative humidity) was “less than 0.1%”. In turn, `Nc1cc(C(F)(F)F)c(-c2cc(N3CCOCC3)nc(N3CCOCC3)n2)cn1` [5-(2,6-Di-4-morpholinyl-4-pyrimidinyl)-4-trifluoromethylpyridin-2-amine] came in with a moisture uptake (85% relative humidity) of 8.9%.

The values are drawn from patent US9452994B2, “Manufacturing process for pyrimidine derivatives” (Novartis AG, priority 2010, dated 2016).
